Assay results from US20100029615A1, “BENZIMIDAZOLE DERIVATIVES” (priority 2006, published 2010).
Counter-ions that a name gives are not always drawn.

target: T1, SMO (Mus musculus, UniProt P56726); assay: Smoothened (SMO)/Sonic Hedgehog (SHh) Transient Transcriptional Activation Assay (Gli-luciferase reporter in C3H10T1/2 cells); type: cell-based, murine; conditions: C3H 10T1/2, 2 μM test compound, SHh 250 ng/ml, 20 hrs, read-out: SMO CELL % INHIBITION @ 2 μM
T1 construct: endogenous in cells; host or cells: C3H10T1/2 (ATCC #CCL-226)
Procedure, shortened: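 Luminescence (Dual-Glo) measured after 20 h co-exposure at 37 °C to 250 ng/ml human SHh and compound at 2 uM down to 2 nM final. Cells were C3H10T1/2 carrying a transfected murine 10× Gli response-element luciferase construct with pEGFP, starved 20 h in 0.5% calf serum beforehand.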

T1 sequence (P56726 33-793): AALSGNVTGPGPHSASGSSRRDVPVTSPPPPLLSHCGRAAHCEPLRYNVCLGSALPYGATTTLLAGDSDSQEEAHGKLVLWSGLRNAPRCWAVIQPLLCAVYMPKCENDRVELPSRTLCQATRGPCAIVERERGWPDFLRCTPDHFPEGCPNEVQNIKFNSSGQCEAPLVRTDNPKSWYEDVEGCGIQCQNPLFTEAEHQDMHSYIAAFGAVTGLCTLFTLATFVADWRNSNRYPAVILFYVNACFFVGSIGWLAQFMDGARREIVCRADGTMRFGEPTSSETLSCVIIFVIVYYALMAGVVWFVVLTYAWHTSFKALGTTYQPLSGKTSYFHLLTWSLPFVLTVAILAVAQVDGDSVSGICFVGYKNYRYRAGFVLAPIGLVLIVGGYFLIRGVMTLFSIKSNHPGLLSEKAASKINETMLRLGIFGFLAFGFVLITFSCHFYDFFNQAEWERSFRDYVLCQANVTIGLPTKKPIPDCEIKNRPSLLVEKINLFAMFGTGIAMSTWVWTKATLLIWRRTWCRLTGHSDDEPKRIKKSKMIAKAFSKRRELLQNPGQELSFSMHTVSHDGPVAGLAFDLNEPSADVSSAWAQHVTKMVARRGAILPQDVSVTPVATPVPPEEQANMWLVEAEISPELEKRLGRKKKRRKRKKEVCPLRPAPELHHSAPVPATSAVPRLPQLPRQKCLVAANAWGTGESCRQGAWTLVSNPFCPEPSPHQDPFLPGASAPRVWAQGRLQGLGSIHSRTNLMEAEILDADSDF

First: O=C(N[C@@H]1CCC[C@H](c2nc3ccccc3[nH]2)C1)c1ccc2scnc2c1 [Example 216, N-[(1R,3S)-3-(1H-benzimidazol-2-yl)cyclohexyl]-1,3-benzothiazole-5-carboxamide triflouroacetate]
Second: O=C(N[C@@H]1CCCC(c2nc3ccccc3[nH]2)C1)c1ccc2c(c1)OC(F)(F)O2 (stereo partly drawn) [Example 251, N-((1R,3S)-3-(1H-benzo[d]imidaz-ol-2-yl)cyclohexyl)-2,2-difluorobenzo[d] [1,3]dioxole-5-carboxamide]
The inhibition at 2 µM of the first is lower: 86% for the first, 102% for the second.

First: Cn1c(=O)[nH]c2cc(C(=O)N[C@@H]3CCC[C@H](c4nc5ccccc5[nH]4)C3)ccc21 [Example 217, N-[(1R,3S)-3-(1H-benzimidazol-2-yl)cyclohexyl]-1-methyl-2-oxo-2,3-dihydro-1H-benzimidazole-5-carboxamide triflouroacetate]
Second: CN1C(=O)COc2ccc(C(=O)N[C@H]3CCC[C@H](c4nc5ccccc5[nH]4)C3)cc21 [Example 249, N-(3-(1H-benzo[d]imidaz-ol-2-yl)cyclohexyl)-4-methyl-3-oxo-3,4-dihydro-2H-benzo[d][1,4]ox-azine-6-carboxamide HCl]
The inhibition at 2 µM of the first is lower: 85% for the first, 109% for the second.

First: O=C(N[C@@H]1CCC[C@H](c2nc3ccccc3[nH]2)C1)[C@@H]1CCc2ccccc2O1 [Example 218, (2S)-N-[(1R,3S)-3-(1H-benzimidazol-2-yl)cyclohexyl] chromane-2-carboxamide triflouroacetate]
Second: O=C(N[C@@H]1CCC[C@@H](c2nc3ccccc3[nH]2)C1)c1ccc2c(c1)OCCO2 [Example 241]
The inhibition at 2 µM of the first is higher: 96% for the first, 63% for the second.

Compared with O=C1Cc2cc(C(=O)N[C@@H]3CCC[C@H](c4nc5ccccc5[nH]4)C3)ccc2N1 [Example 219, N-[(1R,3S)-3-(1H-benzimidazol-2-yl)cyclohexyl]-2-oxoindoline-5-carboxamide triflouroacetate], O=C1CCc2cc(C(=O)N[C@@H]3CCC[C@H](c4nc5ccccc5[nH]4)C3)ccc2N1 [Example 220, N-[(1R,3S)-3-(1H-benzimidazol-2-yl)cyclohexyl]-2-oxo-1,2,3,4-tetrahydroquin-oline-6-carboxamide triflouroacetate] is lower in inhibition at 2 µM: 87% for the first, 81% for the second.

First: CCc1ccc2nc(C(=O)N[C@@H]3CCC[C@H](c4nc5ccccc5[nH]4)C3)cn2c1 [Example 221, N-[(1R,3S)-3-(1H-benzimidazol-2-yl)cyclohexyl]-6-ethylimidazo[1,2-a]pyridine-2-carboxamide triflouroacetate]
Second: O=C(N[C@@H]1CCC[C@H](c2nc3ccccc3[nH]2)C1)c1ccc2c(n1)OCCO2 [Example 242, N-((1R,3S)-3-(1H-benzo[d]imidaz-ol-2-yl)cyclohexyl)-2,3-dihydro-[1,4]dioxino[2,3-b]pyridine-6-carboxamide]
The inhibition at 2 µM of the first is lower: 48% for the first, 86% for the second.

Compared with COc1cc(C(=O)N[C@@H]2CCC[C@H](c3nc4ccccc4[nH]3)C2)cc2c1OCO2 [Example 222, N-[(1R,3S)-3-(1H-benzimidazol-2-yl)cyclohexyl]-7-methoxy-1,3-benzodioxole-5-carboxamide triflouroacetate], O=C(N[C@@H]1CCC[C@H](c2nc3ccccc3[nH]2)C1)c1cnc2c(c1)OCCO2 [Example 243, N-((1R,3S)-3-(1H-benzo[d]imidaz-ol-2-yl)cyclohexyl)-2,3-dihydro-[1,4]dioxino[2,3-b]pyridine-7-carboxamide] is higher in inhibition at 2 µM: 52% for the first, 96% for the second.

Compared with O=C(N[C@@H]1CCC[C@H](c2nc3ccc(C(F)(F)F)cc3[nH]2)C1)c1ccc2c(c1)OCCO2 [Example 223, N-((1R,3S)-3-[6-(trifluoromethyl)-1H-benzimidazol-2-yl]cyclohexyl]-2,3-dihydro-1,4-benzodioxine-6-carboxamide HCl], O=C(N[C@@H]1CCC[C@H](c2nc3ccc(Br)cc3[nH]2)C1)c1ccc2c(c1)OCCO2 [Example 224, N-[(1R,3S)-3-(6-bromo-1H-benzimidazol-2-yl)cyclohexyl]-2,3-dihydro-1,4-benzodioxine-6-carboxamide HCl] is higher in inhibition at 2 µM: 105% for the first, 106% for the second.

Going from O=C(NCCCCl)N[C@@H]1CCC[C@H](c2nc3ccccc3[nH]2)C1 [Example 225, 1-((1R,3S)-3-(1H-benzo[d]imidaz-ol-2-yl)cyclohexyl)-3-(3-chloropropyl)-urea] to O=C(NC1CCCC1)N[C@@H]1CCC[C@H](c2nc3ccccc3[nH]2)C1 [Example 226, 1-((1R,3S)-3-(1H-benzo[d]imidaz-ol-2-yl)cyclohexyl)-3-cyclopentylurea], the inhibition at 2 µM falls from 70% to 63%.

Going from O=C(Nc1cc(Cl)cc(Cl)c1)N[C@@H]1CCC[C@H](c2nc3ccccc3[nH]2)C1 [Example 227, 1-[(1R,3S)-3-(1H-benzimidazol-2-yl)cyclohexyl]-3-(3,5-dichlorophenyl) urea] to O=C(Nc1ccc(Cl)c(Cl)c1)N[C@@H]1CCC[C@H](c2nc3ccccc3[nH]2)C1 [Example 237], the inhibition at 2 µM falls from 115% to 111%.

Compared with N#Cc1ccc(NC(=O)N[C@@H]2CCC[C@H](c3nc4ccccc4[nH]3)C2)cc1 [Example 228, 1-[(1R,3S)-3-(1H-benzimidazol-2-yl)cyclohexyl]-3-(4-cyanophenyl) urea], N#Cc1cccc(NC(=O)N[C@@H]2CCC[C@H](c3nc4ccccc4[nH]3)C2)c1 [Example 231, 1-[(1R,3S)-3-(1H-benzimidazol-2-yl)cyclohexyl] 3-(3-cyanophenyl)-urea] is lower in inhibition at 2 µM: 109% for the first, 103% for the second.

Going from O=C(Nc1ccc(-c2ccccc2)s1)N[C@@H]1CCC[C@H](c2nc3ccccc3[nH]2)C1 [Example 229, 1-[(1R,3S)-3-(1H-benzimidazol-2-yl)cyclohexyl]-3-(5-phenyl-2-thienyl)urea] to COc1ccc(NC(=O)N[C@@H]2CCC[C@H](c3nc4ccccc4[nH]3)C2)cc1 [Example 232, 1-[(1R,3S)-3-(1H-benzimidazol-2-yl)cyclohexyl]-3-(4-methoxyphenyl) urea], the inhibition at 2 µM falls from 108% to 103%.

Going from O=C(Nc1cc(F)cc2c1OCOC2)N[C@@H]1CCC[C@H](c2nc3ccccc3[nH]2)C1 [Example 230, 1-[(1R,3S)-3-(1H-benzimidazol-2-yl)cyclohexyl]-3-(6-fluoro-4H-1,3-benzodioxol-8-yl)urea] to O=C(Nc1ccc(Cl)cc1Cl)N[C@@H]1CCC[C@H](c2nc3ccccc3[nH]2)C1 [Example 234, 1-[(1R,3S)-3-(1H-benzimidazol-2-yl)cyclohexyl]-3-(2,4-dichlorophenyl) urea], the inhibition at 2 µM falls from 111% to 108%.

Going from Cc1noc(C)c1NC(=O)N[C@@H]1CCC[C@H](c2nc3ccccc3[nH]2)C1 [Example 233, 1-((1R,3S)-3-(1H-benzo[d]imidaz-ol-2-yl)cyclohexyl)-3-(3,5-dimethylisoxaz-ol-4-yl)urea] to COc1ccc(NC(=O)N[C@@H]2CCC[C@H](c3nc4ccccc4[nH]3)C2)c(C)c1 [Example 235, 1-[(1R,3S)-3-(1H-benzimidazol-2-yl)cyclohexyl]-3-(4-methoxy-2-methylphenyl) urea], the inhibition at 2 µM rises from 48% to 98%.

First: CC(C)c1ccc(NC(=O)N[C@@H]2CCC[C@H](c3nc4ccccc4[nH]3)C2)cc1 [Example 236, 1-[(1R,3S)-3-(1H-benzimidazol-2-yl)cyclohexyl]-3-(4-isopropylphenyl) urea]
Second: O=C(Nc1ccc(Cl)c(C(F)(F)F)c1)N[C@@H]1CCC[C@H](c2nc3ccccc3[nH]2)C1 [Example 238, 1-[(1R,3S)-3-(1H-benzimidazol-2-yl)cyclohexyl]-3-[4-chloro-3-(trifluoromethyl)phenyl]urea]
The inhibition at 2 µM of the first is lower: 108% for the first, 114% for the second.

Going from COc1ccc2[nH]c([C@@H]3CCC[C@H](NC(=O)c4ccc5c(c4)OCCO5)C3)nc2c1 [Example 239, N-((1S,3R)-3-(5-methoxy-1H-benzo[d]imidaz-ol-2-yl)cyclohexyl)-2,3-dihydrobenzo[b] [1,4]dioxine-6-carboxamide HCl] to Cn1c([C@@H]2CCC[C@@H](NC(=O)c3ccc4c(c3)OCCO4)C2)nc2ccccc21 [Example 240, N-([1R,3R]-3-(1-methyl-1H-benzo[d]imidaz-ol-2-yl)cyclohexyl)-2,3-dihydrobenzo[b] [1,4]dioxine-6-carboxamide HCl], the inhibition at 2 µM rises from 23% to 60%.

First: Cn1c(C23CCCC(NC(=O)c4ccc5c(c4)OCCO5)(C2)C3)nc2ccccc21 [Example 244, N-(5-(1-methyl-1H-benzo[d]imidaz-ol-2-yl)bicyclo[3.1.1]heptan-1-yl)-2,3-dihydrobenzo[b] [1,4]dioxine-6-carboxamide]
Second: Cn1c(C23CCCC(NC(=O)c4ccc5c(c4)OC(F)(F)O5)(C2)C3)nc2ccccc21 [Example 250, 2,2-difluoro-N-(5-(1-methyl-1H-benzo[d]imidaz-ol-2-yl)bicyclo[3.1.1]heptan-1-yl)benzo[d][1,3] dioxole-5-carboxamide]
The inhibition at 2 µM of the first is lower: 66% for the first, 94% for the second.

Going from COc1cc(OC)cc(C(=O)NC23CCCC(c4nc5ccccc5n4C)(C2)C3)c1 [Example 245, 3,5-dimethoxy-N-(5-(1-methyl-1H-benzo[d]imidaz-ol-2-yl)bicyclo[3.1.1]heptan-1-yl)benzamide] to COc1ccc2cc(C(=O)N[C@H]3CCC[C@H](c4nc5ccccc5[nH]4)C3)n(C)c2c1 [Example 248, N-(3-(1H-benzo[d]imidaz-ol-2-yl)cyclohexyl)-6-methoxy-1-methyl-1H-indole-2-carboxamide HCl], the inhibition at 2 µM rises from 49% to 74%.

Compared with O=C(N[C@H]1CCC[C@H](c2nc3ccccc3[nH]2)C1)c1cc(C2CC2)n[nH]1 [Example 246, N-(3-(1H-benzo[d]imidaz-ol-2-yl)cyclohexyl)-3-cyclopropyl-1H-pyrazole-5-carboxamide HCl], O=C1CCc2cc(C(=O)N[C@H]3CCC[C@H](c4nc5ccccc5[nH]4)C3)ccc2N1 [Example 247, N-(3-(1H-benzo[d]imidaz-ol-2-yl)cyclohexyl)-2-oxo-1,2,3,4-tetrahydroquino-line-6-carboxamide HCl] is higher in inhibition at 2 µM: 44% for the first, 98% for the second.
